ChEMBL document CHEMBL1201862, “PubChem BioAssay data set” (2004)
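Protocol summary: plate cells (96-well), add compound at 5 concentrations, incubate 48 h, interpolate endpoints linearly. Here, GI50 denotes the concentration required for 50% inhibition of growth.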 Calls of active or inactive are those of the source. Rule as the data show it: active = GI50 up to about 1.1 µM and inactive = higher.

Tests used:
Experiment in all cases: NCI anticancer screen, dose series, 48 h
[1] = test system: 786-0
[2] = test system: UO-31
[3] = test system: COLO 205
[4] = test system: EKVX
[5] = test system: RPMI-8226
[6] = test system: OVCAR-4
[7] = test system: HCC 2998
[8] = test system: SR
[9] = test system: SK-MEL-2
[10] = test system: CAKI-1
[11] = test system: MOLT-4
[12] = test system: UACC-257
[13] = test system: ACHN
[14] = test system: LOX IMVI
[15] = test system: OVCAR-8
[16] = test system: SK-MEL-5
[17] = test system: OVCAR-5

Measured: GI50

O=C1C=CC(=O)c2cc(Sc3ccccc3)c(=O)c(Sc3ccccc3)cc21
inactive: [1] 88.5 µM | [2] 37.8 µM | [3] 73.3 µM | [4] > 100 µM | [5] 37.3 µM | [6] 53.3 µM | [7] > 100 µM | [8] 25.5 µM | [9] > 100 µM | [10] > 100 µM | [11] 24 µM | [12] > 100 µM | [13] 12.8 µM | [14] > 100 µM | [15] 31.7 µM | [16] > 100 µM

CCCCCC/C(CC(=O)CCC(=O)NCCc1ccccc1)=N\Nc1ccc([N+](=O)[O-])cc1[N+](=O)[O-]
inactive: [1] > 100 µM | [2] 61.9 µM | [3] 64.3 µM | [4] 38.7 µM | [5] 27 µM | [7] > 100 µM | [8] 20.6 µM | [9] > 100 µM | [10] > 100 µM | [11] 21.4 µM | [17] > 100 µM | [12] 74.8 µM | [13] 97.7 µM | [14] 34.7 µM | [15] 89.3 µM | [16] 70.1 µM

CN(C)/N=N/c1ccc(S(N)(=O)=O)cc1
inactive: [1] > 100 µM | [2] > 100 µM | [3] > 100 µM | [4] > 100 µM | [5] > 100 µM | [6] > 100 µM | [7] > 100 µM | [8] > 100 µM | [9] > 100 µM | [10] > 100 µM | [11] > 100 µM | [17] > 100 µM | [12] > 100 µM | [13] > 100 µM | [14] > 100 µM | [15] > 100 µM | [16] > 100 µM

COc1cc(OC)c(C2CC=Cc3c(OC)cc(OC)c(OC)c32)cc1OC (configuration not stated)
inactive: [1] > 100 µM | [2] > 100 µM | [3] > 100 µM | [4] > 100 µM | [5] > 100 µM | [6] > 100 µM | [7] > 100 µM | [8] > 100 µM | [9] > 100 µM | [10] > 100 µM | [11] > 100 µM | [17] > 100 µM | [12] > 100 µM | [13] > 100 µM | [14] > 100 µM | [15] > 100 µM | [16] > 100 µM

CCOC(=O)/C(C#N)=C\C=C1/C=CN=C2NCCN21
inactive: [1] > 100 µM | [2] > 100 µM | [3] > 100 µM | [4] > 100 µM | [5] > 100 µM | [6] > 100 µM | [7] > 100 µM | [8] > 100 µM | [9] > 100 µM | [10] > 100 µM | [11] > 100 µM | [12] > 100 µM | [13] 80.9 µM | [14] > 100 µM | [15] > 100 µM | [16] > 100 µM

CCOc1ccc(/N=N/c2ccc3oc(=O)c(/C(C)=N/NC(=O)CC(=O)Nc4cccc(OC)c4)cc3c2)cc1
inactive: [1] 10.5 µM | [2] 12.3 µM | [3] 28.1 µM | [4] 19.4 µM | [5] 8.53 µM | [6] 16.3 µM | [7] 15.6 µM | [8] 2.64 µM | [9] 20.8 µM | [11] 3.56 µM | [17] > 46.6 µM | [12] 3.8 µM | [13] 21.3 µM | [14] 17.2 µM | [15] 18.7 µM | [16] 20.2 µM

O=C(O)c1ccc([I+]c2ccccc2)cc1
inactive: [1] > 100 µM | [2] > 100 µM | [3] > 100 µM | [4] > 100 µM | [5] > 100 µM | [6] > 100 µM | [7] > 100 µM | [8] > 100 µM | [9] > 100 µM | [10] > 100 µM | [11] > 100 µM | [17] > 100 µM | [12] > 100 µM | [14] > 100 µM | [15] > 100 µM | [16] > 100 µM

COc1c(C(=O)c2ccc([N+](=O)[O-])cc2)cc(C(C)(C)C)cc1C(C)(C)C
inactive: [1] 40.9 µM | [2] 40.8 µM | [4] 47.4 µM | [5] 12.6 µM | [6] 43.1 µM | [7] 24.9 µM | [8] 17.1 µM | [9] 13.4 µM | [10] 41.6 µM | [11] 16.4 µM | [17] 13.4 µM | [12] 22.9 µM | [13] 31.3 µM | [14] 12.3 µM | [15] 52.7 µM | [16] 15.6 µM

Cc1cc2c(cc1C)NC(=O)C(NC(=O)/C=C/c1ccccc1)C=N2 (configuration not stated)
inactive: [1] 30.3 µM | [2] 29.6 µM | [3] 18.1 µM | [4] > 100 µM | [5] 25.5 µM | [6] 38.9 µM | [7] 48.6 µM | [8] 20.8 µM | [9] 24.5 µM | [10] 31.3 µM | [11] 20.7 µM | [17] > 100 µM | [12] 24.3 µM | [13] 41.9 µM | [14] 22.7 µM | [15] 38.2 µM | [16] 29.9 µM
